# Reference: PubChem BioAssay AID226 (DTP/NCI, 2004)
# Several values for one entry are separate records, joined by “and”; a condition that tells them apart may be missing. Equal entries are not always repeated. Toxic doses and inconclusive results are not listed.
# Test system: B6C3F1 mice, intracerebral ependymoblastoma, median survival T/C
# Test: NCI In Vivo Anticancer Drug Screen. Data for tumor model Ependymoblastoma (intracerebral) in B6C3F1 mice
# Details: endpoint: median survival time, higher = longer survival
# Procedure: The antitumor activity of compounds was measured in mice bearing transplantable tumors. Survival or tumor size were measured and the results are expressed as the measurement made in the treated group (T) divided by the measurement made in the vehicle treated control group (C). The tumor model used in this assay is Ependymoblastoma (intracerebral) in B6C3F1 mice
# [1] = dose: 200.0 mg/kg/injection, schedule: Q01DX005 (ip), vehicle: saline with Tween-80
# [2] = dose: 32.0 mg/kg/injection, schedule: Q01DX005 (ip), vehicle: saline
# [3] = dose: 64.0 mg/kg/injection, schedule: Q01DX005 (ip), vehicle: saline
# [4] = dose: 25.0 mg/kg/injection, schedule: Q01DX005 (ip), vehicle: saline
# [5] = dose: 100.0 mg/kg/injection, schedule: Q01DX005 (ip), vehicle: saline
# [6] = dose: 200.0 mg/kg/injection, schedule: Q01DX005 (ip), vehicle: saline
# [7] = dose: 400.0 mg/kg/injection, schedule: Q01DX005 (ip), vehicle: saline
compound,measurement,setting,value
CO[C@H]1C[C@@H]2CC[C@@H](C)[C@@](O)(O2)C(=O)C(=O)N2CCCC[C@H]2C(=O)O[C@H]([C@H](C)C[C@@H]2CC[C@@H](O)[C@H](OC)C2)CC(=O)[C@H](C)C=C(C)[C@@H](O)[C@@H](OC)C(=O)[C@H](C)C[C@H](C)/C=C/C=C/C=C1C,T/C,"dose: 3.12 mg/kg/injection, schedule: Q01DX009 (ip), vehicle: clinical formulation",118 % of control
same,T/C,"dose: 6.25 mg/kg/injection, schedule: Q01DX005 (ip), vehicle: saline with Tween-80",113 % of control
same,T/C,"dose: 12.5 mg/kg/injection, schedule: Q01DX009 (ip), vehicle: gum acacia",202 % of control
same,T/C,"dose: 25.0 mg/kg/injection, schedule: Q01DX005 (oral), vehicle: saline with Tween-80",106 % of control
same,T/C,"dose: 25.0 mg/kg/injection, schedule: Q01DX009 (ip), vehicle: clinical formulation",156 % of control
same,T/C,"dose: 25.0 mg/kg/injection, schedule: Q01DX009 (ip), vehicle: gum acacia",198 % of control
same,T/C,"dose: 50.0 mg/kg/injection, schedule: Q01DX005 (oral), vehicle: saline with Tween-80",107 % of control and 108 % of control
same,T/C,"dose: 50.0 mg/kg/injection, schedule: Q01DX009 (ip), vehicle: clinical formulation",152 % of control and 156 % of control
same,T/C,"dose: 50.0 mg/kg/injection, schedule: Q01DX009 (ip), vehicle: gum acacia",177 % of control
same,T/C,"dose: 100.0 mg/kg/injection, schedule: Q01DX005 (oral), vehicle: saline with Tween-80",100 % of control and 107 % of control
same,T/C,"dose: 100.0 mg/kg/injection, schedule: Q01DX009 (ip), vehicle: clinical formulation",162 % of control and 167 % of control
same,T/C,"dose: 100.0 mg/kg/injection, schedule: Q01DX009 (ip), vehicle: gum acacia",185 % of control
same,T/C,[1],113 % of control and 193 % of control and 207 % of control
same,T/C,"dose: 200.0 mg/kg/injection, schedule: Q01DX005 (oral), vehicle: saline with Tween-80",103 % of control and 108 % of control
same,T/C,"dose: 400.0 mg/kg/injection, schedule: Q01DX005 (oral), vehicle: saline with Tween-80",108 % of control and 119 % of control
same,T/C,"dose: 400.0 mg/kg/injection, schedule: Q01DX009 (ip), vehicle: gum acacia",198 % of control
same,T/C,"dose: 800.0 mg/kg/injection, schedule: Q01DX005 (oral), vehicle: saline with Tween-80",124 % of control
COS(C)(=O)=O,T/C,"dose: 16.0 mg/kg/injection, schedule: Q01DX005 (ip), vehicle: saline",118 % of control
same,T/C,[2],102 % of control
same,T/C,[3],100 % of control
Nc1ncnc2c1ncn2C1OC(COP(=O)(O)O)C(O)C1O (stereo unspecified),T/C,[4],100 % of control
same,T/C,"dose: 50.0 mg/kg/injection, schedule: Q01DX005 (ip), vehicle: saline",106 % of control and 107 % of control
same,T/C,[5],105 % of control and 112 % of control
same,T/C,[6],107 % of control and 109 % of control
same,T/C,[7],106 % of control and 112 % of control
same,T/C,"dose: 800.0 mg/kg/injection, schedule: Q01DX005 (ip), vehicle: saline",117 % of control
S=c1nc[nH]c2nc[nH]c12,T/C,"dose: 10.0 mg/kg/injection, schedule: Q01DX001 (ip), vehicle: Klucel (hydroxypropylcellulose) (HPC)",92 % of control and 99 % of control and 101 % of control
same,T/C,"dose: 20.0 mg/kg/injection, schedule: Q01DX001 (ip), vehicle: Klucel (hydroxypropylcellulose) (HPC)",98 % of control and 100 % of control and 107 % of control
same,T/C,"dose: 40.0 mg/kg/injection, schedule: Q01DX001 (ip), vehicle: Klucel (hydroxypropylcellulose) (HPC)",100 % of control and 103 % of control (2×)
same,T/C,"dose: 80.0 mg/kg/injection, schedule: Q01DX001 (ip), vehicle: Klucel (hydroxypropylcellulose) (HPC)",95 % of control and 103 % of control and 107 % of control
same,T/C,"dose: 160.0 mg/kg/injection, schedule: Q01DX001 (ip), vehicle: Klucel (hydroxypropylcellulose) (HPC)",100 % of control and 101 % of control and 116 % of control
CS(C)=O,T/C,"dose: 500.0 mg/kg/injection, schedule: Q01DX005 (ip), vehicle: water",103 % of control
same,T/C,"dose: 1000.0 mg/kg/injection, schedule: Q01DX005 (ip), vehicle: saline",98 % of control
same,T/C,"dose: 1000.0 mg/kg/injection, schedule: Q01DX005 (ip), vehicle: water",97 % of control
same,T/C,"dose: 2000.0 mg/kg/injection, schedule: Q01DX001 (ip), vehicle: saline",96 % of control and 98 % of control and 100 % of control
same,T/C,"dose: 2000.0 mg/kg/injection, schedule: Q01DX005 (ip), vehicle: saline",109 % of control
same,T/C,"dose: 2000.0 mg/kg/injection, schedule: Q01DX005 (ip), vehicle: water",103 % of control
same,T/C,"dose: 2.0 grams/kg/injection, schedule: Q01DX001 (ip), vehicle: saline",102 % of control
same,T/C,"dose: 4000.0 mg/kg/injection, schedule: Q01DX001 (ip), vehicle: saline",91 % of control and 95 % of control and 103 % of control
same,T/C,"dose: 4000.0 mg/kg/injection, schedule: Q01DX005 (ip), vehicle: saline",103 % of control
same,T/C,"dose: 4000.0 mg/kg/injection, schedule: Q01DX005 (ip), vehicle: water",105 % of control
same,T/C,"dose: 4.0 grams/kg/injection, schedule: Q01DX001 (ip), vehicle: saline",95 % of control
same,T/C,"dose: 8000.0 mg/kg/injection, schedule: Q01DX001 (ip), vehicle: saline",101 % of control (2×) and 107 % of control
same,T/C,"dose: 8000.0 mg/kg/injection, schedule: Q01DX005 (ip), vehicle: saline",103 % of control
same,T/C,"dose: 8000.0 mg/kg/injection, schedule: Q01DX005 (ip), vehicle: water",98 % of control
same,T/C,"dose: 8.0 grams/kg/injection, schedule: Q01DX001 (ip), vehicle: saline",99 % of control
same,T/C,"dose: 16000.0 mg/kg/injection, schedule: Q01DX001 (ip), vehicle: saline",93 % of control
CC(C)[C@](O)(C(=O)OCC1=CC[N+]2([O-])CC[C@@H](O)[C@@H]12)[C@H](C)O (stereo partly specified),T/C,[2],104 % of control
same,T/C,[3],98 % of control and 101 % of control
same,T/C,"dose: 128.0 mg/kg/injection, schedule: Q01DX005 (ip), vehicle: saline",95 % of control and 100 % of control
same,T/C,"dose: 256.0 mg/kg/injection, schedule: Q01DX005 (ip), vehicle: saline",103 % of control and 108 % of control
same,T/C,"dose: 512.0 mg/kg/injection, schedule: Q01DX005 (ip), vehicle: saline",94 % of control and 117 % of control
C=CCSc1ncnc2c1ncn2C1OC(CO)C(O)C1O (stereo unspecified),T/C,"dose: 37.5 mg/kg/injection, schedule: Q01DX005 (ip), vehicle: saline with Tween-80",98 % of control
same,T/C,"dose: 75.0 mg/kg/injection, schedule: Q01DX005 (ip), vehicle: saline with Tween-80",114 % of control
same,T/C,"dose: 150.0 mg/kg/injection, schedule: Q01DX005 (ip), vehicle: saline with Tween-80",120 % of control
same,T/C,"dose: 300.0 mg/kg/injection, schedule: Q01DX005 (ip), vehicle: saline with Tween-80",106 % of control
CN(N=O)C(=O)N[C@@H](C=O)[C@@H](O)[C@H](O)[C@H](O)CO,T/C,"dose: 6.25 mg/kg/injection, schedule: Q01DX009 (ip), vehicle: citric acid",96 % of control
same,T/C,"dose: 12.5 mg/kg/injection, schedule: Q01DX005 (ip), vehicle: saline",103 % of control
same,T/C,"dose: 12.5 mg/kg/injection, schedule: Q01DX009 (ip), vehicle: citric acid",108 % of control
same,T/C,[4],122 % of control
same,T/C,"dose: 25.0 mg/kg/injection, schedule: Q01DX009 (ip), vehicle: citric acid",117 % of control
same,T/C,"dose: 64.0 mg/kg/injection, schedule: Q01DX001 (ip), vehicle: other",108 % of control
same,T/C,"dose: 75.0 mg/kg/injection, schedule: Q01DX001 (ip), vehicle: saline",121 % of control
same,T/C,[5],113 % of control
same,T/C,"dose: 128.0 mg/kg/injection, schedule: Q01DX001 (ip), vehicle: other",105 % of control
same,T/C,[6],113 % of control
same,T/C,"dose: 256.0 mg/kg/injection, schedule: Q01DX001 (ip), vehicle: other",101 % of control
same,T/C,[7],103 % of control
same,T/C,"dose: 512.0 mg/kg/injection, schedule: Q01DX001 (ip), vehicle: other",108 % of control
CCSc1ncnc2c1ncn2C1OC(CO)C(O)C1O (stereo unspecified),T/C,"dose: 50.0 mg/kg/injection, schedule: Q01DX005 (ip), vehicle: saline with Tween-80",100 % of control and 106 % of control and 122 % of control
same,T/C,"dose: 100.0 mg/kg/injection, schedule: Q01DX005 (ip), vehicle: saline with Tween-80",103 % of control and 106 % of control
same,T/C,[1],107 % of control and 109 % of control
Cc1ncc(CO)c(C)c1O,T/C,"dose: 128.0 mg/kg/injection, schedule: Q01DX005 (ip), vehicle: Klucel (hydroxypropylcellulose) (HPC)",102 % of control and 108 % of control
same,T/C,"dose: 256.0 mg/kg/injection, schedule: Q01DX005 (ip), vehicle: Klucel (hydroxypropylcellulose) (HPC)",101 % of control and 105 % of control
NC(=O)N(CCCl)N=O,T/C,"dose: 1.0 mg/kg/injection, schedule: Q01DX001 (ip), vehicle: saline + alcohol",121 % of control
same,T/C,"dose: 4.0 mg/kg/injection, schedule: Q01DX001 (ip), vehicle: saline + alcohol",184 % of control
